Data: patent US11390617B2, “Methods of treating non-Hodgkin lymphoma using 2-(2,6-dioxopiperidin-3-yl)-4-((2-fluoro-4-((3-morpholinoazetidin-1-yl)methyl)benzyl)amino)isoindoline-1,3-dione” (Celgene Corporation, priority 2019, dated 2022)

Tests used:
Format in all cases: cell-based
SU-DHL-4 cell line = experiment: Cell proliferation and viability assay using SU-DHL-4 cell line (Cell Titer-Glo); conditions: Homo sapiens, SU-DHL-4, 120 hours
Description: The following exemplary assay uses a DLBCL cell line, for example, the SU-DHL-4 cell line (Deutsche Sammlung von Mikroorganismen und Zellkulturen GmbH [DSMZ]: catalogue number ACC-495) at 120 hours post-treatment. The seeding density for SU-DHL-4 can be optimized to ensure assay linearity in 1536-well plates.
Increasing concentrations (0.5 nM to […]) of Compounds 1, 2, and 3 were each spotted in a 20-point dilution fashion (unevenly spaced data points) via an acoustic dispenser (EDC ATS-100) into an empty 1536-well plate. The DMSO concentration was kept constant for a final assay concentration of 0.1% DMSO. Prior to testing, SU-DHL-4 cells were grown in RPMI-1640 (Roswell Park Memorial Institute-1640) medium with 10% FBS (fetal bovine serum: HyClone) and expanded in culture flasks to provide sufficient amounts of starting material. Cells were then diluted to 500 cells per well in a 5 μL volume, and added directly to the compound-spotted 1536-well plates. Cells were allowed to grow for 120 hours in 5% CO2 at 37° C. At the time when exposure of cells to compound began (t0), initial viable cell number was assessed via Cell Titer-Glo® Luminescent Cell Viability Assay at a 1 vol: 2 vol ratio according to manufacturer's instructions (Promega Corporation, Madison, Wis.) by quantifying the level of luminescence generated by adenosine-5′-triphosphate (ATP) present in viable cells. After 120 hours, cell viability of the treated cells was assessed via Cell Titer-Glo© and read for luminescence. All growth inhibition curves were processed and evaluated using Activity Base (IDBS, Alameda, Calif.). Cell viability IC50 values were calculated using a four parameter logistic model (sigmoidal dose-response model): y=(A+((B−A)/(1+((C/x)^D)))) wherein: A=YMin B=YMax C=EC50 D=Hill slope IC50=the concentration of the compound when Y=50% of DMSO control Y=cell viability measured as luminescence unit, and x=concentration of compound.

U2932 Parental = experiment: Viability/apoptosis flow cytometry assay, DLBCL cell lines with acquired resistance to doxorubicin and parental lines; conditions: 120 hours
Description: (§1) The following exemplary anti-proliferative assay uses exemplary DLBCL cell lines with acquired resistance to doxorubicin (Table 7). The in vitro growth inhibitory activity of Compound described herein was evaluated using a 384-well flow cytometry assay. The activity of Compound 1 was also evaluated in cell lines with acquired resistance to doxorubicin (one of the curative agents in the DLBCL standard of care regimen R-CHOP [rituximab, cyclophosphamide, doxorubicin, vincristine, and prednisone]) (Table 7).
(§2) The cell lines in Table 7 were plated in 96-well flat bottom plates and assessed with increasing concentrations of compound ranging from 0.0015 to 10 μM or dimethyl sulfoxide (DMSO) control. The final concentration of DMSO was 0.1% (v/v). Following the addition of Compound 1 or DMSO and incubation for 120 hours, cell number and cell death were analyzed by flow cytometry (Attune®, Thermo Fisher) using Annexin V and the vital dye, 7-AAD. Phosphatidylserine translocates from the inner layer to the outer layer of the cell membrane early in apoptosis and Annexin V binds to the exposed phosphatidylserine found on the surface of an apoptotic cell. The dye 7-AAD is excluded by intact live cells and only stains cells that have died as a result of apoptosis or necrosis.
(§3) Flow cytometry data analysis was then performed using the Flow Jo_v10 software to determine the number of viable cells (Annexin V and 7-AAD double negative staining cells) and percentage of apoptotic cells (Annexin V positive cells) for each condition. The live cell count for every concentration was normalized to the DMSO control (considered as 100%) to calculate the percentage of viable cells remaining after treatment and graphed using GraphPad Prism 7.03. The IC50 (50% inhibitory concentration) and Emax (maximum efficacy eliminating tumor cells achieved) values were then calculated by performing nonlinear regression curve fitting using log(inhibitor) vs. normalized response—variable slope analysis on GraphPad Prism 7.03. Area under the curve (AUC) was calculated by performing area under curve analysis on GraphPad Prism 7.03. Similarly, for apoptosis analysis, the percentage of apoptosis combining both “early” (Annexin V positive and 7-AAD negative) and “late” apoptosis (Annexin V and 7-AAD positive) cell gates relative to DMSO was graphed using GraphPad Prism 7.03. The AUC, EC50 (concentration of Compound 1 that produces half-maximal apoptosis response) and Ymax (maximal percentage of apoptosis achieved) values from apoptosis curves were calculated by performing area under curve analysis and nonlinear regression curve fitting using log(agonist) vs. normalized response—Variable slope analysis on GraphPad Prism 7.03.
(§4) In Table 8, dose-response proliferation curves for the cell lines with acquired resistance to doxorubicin and non-linear curve-fit regression were used to determine IC50, AUC, and Emax for % viable cells (Emax for viability varies between 100 at low doses and 0 at high doses, which corresponds to inhibition of all viable cells), and dose-response apoptosis curves were used to determine the EC50, AUC, and Ymax for % apoptosis (Ymax for apoptosis varies from 0 at low doses and 100 at higher doses which corresponds to death of all cells). Tumor cells were exposed to serial dilutions (0.00015 to 10 μM) of Compound 1 or dimethyl sulfoxide (DMSO) control for 5 days. Viability and apoptosis for all cell lines was determined by Annexin V/7-aminoactinomycin D (7-AAD) flow cytometry.

Oci-Ly10 DoxoR = experiment: as above; conditions: 120 hours
Description: as §1, §2, §3, §4

U2932 DoxoR = experiment: as above; conditions: 120 hours
Description: as §1, §2, §3, §4

SUDHL4 DoxoR = experiment: as above
Description: as §1, §2, §3, §4

WSU-DLCL2 Parental = experiment: as above
Description: as §1, §2, §3, §4

WSU-DLCL2 DoxoR = experiment: as above
Description: as §1, §2, §3, §4

Oci-Ly10 Parental = experiment: as above; conditions: 120 hours
Description: as §1, §2, §3, §4

[1] = Homo sapiens, read-out: IC50 (% Viable Cells)
[2] = Homo sapiens, WSUDLCL2, 120 hours
[3] = Homo sapiens, WSUDLCL2, 120 hours, read-out: IC50 (% Viable Cells)

Q: What does the source list for `O=C1CC[C@H](N2C(=O)c3cccc(NCc4ccc(CN5CC(N6CCOCC6)C5)cc4F)c3C2=O)C(=O)N1` [Compound 1, (S)-2-(2,6-dioxopiperidin-3-yl)-4-((2-fluoro-4-((3-morpholinoazetidin-1-yl)methyl)benzyl)amino)isoindoline-1,3-dione]?
A: IC50 (SU-DHL-4 cell line): < 200 nM; AUC (% Viable Cells) (U2932 Parental): 193; AUC (Apoptosis) (U2932 Parental): 45.5; Emax (% Viable Cells) (U2932 Parental): 28.4%; Ymax (Apoptosis) (U2932 Parental): 30%; EC50 (U2932 Parental; Homo sapiens): 440 nM; IC50 (U2932 Parental; [1]): 30 nM; AUC (% Viable Cells) (Oci-Ly10 DoxoR): 211.8; AUC (Apoptosis) (Oci-Ly10 DoxoR): 27; Emax (% Viable Cells) (Oci-Ly10 DoxoR): 25%; Ymax (Apoptosis) (Oci-Ly10 DoxoR): 19.48%; EC50 (Oci-Ly10 DoxoR; Homo sapiens): 640 nM; IC50 (Oci-Ly10 DoxoR; [1]): 90 nM; AUC (% Viable Cells) (U2932 DoxoR): 256; AUC (Apoptosis) (U2932 DoxoR): 15.7; Emax (% Viable Cells) (U2932 DoxoR): 27.7%; Ymax (Apoptosis) (U2932 DoxoR): 16%; EC50 (U2932 DoxoR; Homo sapiens): 1120 nM; IC50 (U2932 DoxoR; [1]): 250 nM; AUC (% Viable Cells) (SUDHL4 DoxoR; 120 hours): 182.4; AUC (Apoptosis) (SUDHL4 DoxoR; 120 hours): 84; Emax (% Viable Cells) (SUDHL4 DoxoR; 120 hours): 7.5%; Ymax (Apoptosis) (SUDHL4 DoxoR; 120 hours): 63.5%; EC50 (SUDHL4 DoxoR; Homo sapiens, SU-DHL-4, 120 hours): 400 nM; IC50 (SUDHL4 DoxoR; Homo sapiens, SU-DHL-4, 120 hours, read-out: IC50 (% Viable Cells)): 72 nM; AUC (% Viable Cells) (WSU-DLCL2 Parental; 120 hours): 166.7; AUC (Apoptosis) (WSU-DLCL2 Parental; 120 hours): 51; Emax (% Viable Cells) (WSU-DLCL2 Parental; 120 hours): 28%; Ymax (Apoptosis) (WSU-DLCL2 Parental; 120 hours): 29.5%; EC50 (WSU-DLCL2 Parental; [2]): 320 nM; IC50 (WSU-DLCL2 Parental; [3]): 10 nM; AUC (% Viable Cells) (WSU-DLCL2 DoxoR; 120 hours): 195.9; AUC (Apoptosis) (WSU-DLCL2 DoxoR; 120 hours): 74.4; Emax (% Viable Cells) (WSU-DLCL2 DoxoR; 120 hours): 8.4%; Ymax (Apoptosis) (WSU-DLCL2 DoxoR; 120 hours): 57%; EC50 (WSU-DLCL2 DoxoR; [2]): 400 nM; IC50 (WSU-DLCL2 DoxoR; [3]): 70 nM; AUC (% Viable Cells) (Oci-Ly10 Parental): 285.5; AUC (Apoptosis) (Oci-Ly10 Parental): 13; Emax (% Viable Cells) (Oci-Ly10 Parental): 52%; Ymax (Apoptosis) (Oci-Ly10 Parental): 10.12%; EC50 (Oci-Ly10 Parental; Homo sapiens): 810 nM; IC50 (Oci-Ly10 Parental; [1]): 200 nM
